Where two headings read alike, the source gives them in different places.
Legend:
TPO receptor = molecular target: T1, TPO receptor (Homo sapiens, UniProt P40238); assay: Luciferase assay in TPO-responsive BaF3 cell line; format: cell-based, murine; conditions: at a concentration of 3 uM
T1 construct: expressed in transfected cells; host or cells: murine BaF3 cells (TPO-responsive line)
T1 sequence (P40238 26-635): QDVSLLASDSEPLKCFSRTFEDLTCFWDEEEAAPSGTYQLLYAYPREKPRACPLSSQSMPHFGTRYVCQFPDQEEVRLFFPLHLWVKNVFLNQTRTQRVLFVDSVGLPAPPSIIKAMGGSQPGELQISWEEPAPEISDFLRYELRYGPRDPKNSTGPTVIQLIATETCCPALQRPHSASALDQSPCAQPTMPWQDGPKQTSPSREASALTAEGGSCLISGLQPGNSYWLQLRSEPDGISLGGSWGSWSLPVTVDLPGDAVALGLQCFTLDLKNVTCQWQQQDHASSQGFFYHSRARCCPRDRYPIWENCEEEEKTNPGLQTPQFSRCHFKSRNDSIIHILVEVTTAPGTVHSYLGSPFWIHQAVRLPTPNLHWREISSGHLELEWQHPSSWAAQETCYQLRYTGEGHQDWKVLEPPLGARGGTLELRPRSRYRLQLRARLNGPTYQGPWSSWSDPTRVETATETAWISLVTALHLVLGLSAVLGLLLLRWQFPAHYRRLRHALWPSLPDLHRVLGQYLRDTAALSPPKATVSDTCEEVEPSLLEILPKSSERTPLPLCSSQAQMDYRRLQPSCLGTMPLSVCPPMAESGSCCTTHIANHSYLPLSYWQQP
Procedure: Compounds of the present invention were tested for potency as mimetics of the TPO receptor in a Luciferase assay such as described in Lamb, et al., Nucleic Acids Research 23: 3283–3289 (1995) and Seidel, et al., Proc. Natl. Acad. Sci., USA 92: 3041–3045 (1995) by substituting a TPO-responsive BaF3 cell line (Vigon et al. Proc. Natl. Acad. Sci. USA 1992, 89, 5640–5644) for the HepG2 cells utilized therein. The murine BaF3 cells express TPO receptors and closely match the pattern of STAT (signal transducers and activators of transcription) activation observed in primary murine and human bone marrow cells in response to TPO.

[1] = test system: BAF-3/TPO-responsive human cell lines; assay: proliferation of BAF-3/TPO-responsive human cell lines (Table 1); format: cell-based

Structure (SMILES) | activation, % of control (control is the maximal response to TPO) (TPO receptor) | Efficacy/%TPOmax [1] | EC50 ([1]; BaF3) | EC50 [1]
Cc1ccc(-c2cccc(C=NNC(=S)Nc3cccc(C(=O)O)c3)c2O)cc1C [Example 15.8, 4-(3-carboxyphenyl)-1-[3-(3,4-dimethylphenyl)-2-hydroxybenzylidene]-3-thiosemicarbazide] | about 20 % of control | 90 %TPOmax | 0.03 µM | –
O=C(O)c1ccc(NC(=S)NN=Cc2cccc(-c3cccc(C(F)(F)F)c3)c2O)cc1 [Example 15.9, 4-(4-carboxyphenyl)-1-[2-hydroxy-3-(3-trifluoromethylphenyl)benzylidene]-3-thiosemicarbazide] | – | 100 %TPOmax | 0.02 µM | –
O=C(O)c1cccc(NC(=S)NN=Cc2cccc(-c3cccc(C(F)(F)F)c3)c2O)c1 [Example 15.10, 4-(3-carboxyphenyl)-1-[2-hydroxy-3-(3-trifluoromethylphenyl)benzylidene]-3-3-thiosemicarbazide] | – | 100 %TPOmax | – | 0.05 µM
O=C(O)c1cccc(NC(=S)NN=Cc2cccc(-c3ccc(Cl)cc3)c2O)c1 [Example 15.12, 4-(3-carboxyphenyl)-1-[3-(4-chlorophenyl)-2-hydroxybenzylidene]-3-thiosemicarbazide] | – | 85 %TPOmax | 0.06 µM | –
Cc1ccc(-n2nc(C)c(C=NNC(=S)Nc3ccc(C(=O)O)cc3)c2O)cc1 [Example 15.29, 4-(4-carboxyphenyl)-1-[{5-hydroxy-3-methyl-1-(4-methylphenyl)pyrazol-4-yl}methylene]-3-thiosemicarbazide] | – | 100 %TPOmax | 0.03 µM | –
Cc1ccc(-n2nc(C)c(C=NNC(=S)Nc3cccc(C(=O)O)c3)c2O)cc1 [Example 15.30, 4-(3-carboxyphenyl)-1-[{5-hydroxy-3-methyl-1-(4-methylphenyl)pyrazol-4-yl}methylene]-3-thiosemicarbazide] | – | 100 %TPOmax | 0.03 µM | –
Cc1nn(-c2cccc(Cl)c2)c(O)c1C=NNC(=S)Nc1ccc(C(=O)O)cc1 [Example 15.31, 4-(4-carboxyphenyl)-1-[{1-(3-chlorophenyl)-5-hydroxy-3-methylpyrazol-4-yl}methylene]-3-thiosemicarbazide] | – | 100 %TPOmax | 0.03 µM | –
